The values below come from patent US9884828B2, “Substituted cinnolines as inhibitors of LRRK2 kinase activity” (Imago Pharmaceuticals, Inc., priority 2011, dated 2018).

Sequence of recombinant GST-LRRK2 (wild-type) (Q5S007 whole entry): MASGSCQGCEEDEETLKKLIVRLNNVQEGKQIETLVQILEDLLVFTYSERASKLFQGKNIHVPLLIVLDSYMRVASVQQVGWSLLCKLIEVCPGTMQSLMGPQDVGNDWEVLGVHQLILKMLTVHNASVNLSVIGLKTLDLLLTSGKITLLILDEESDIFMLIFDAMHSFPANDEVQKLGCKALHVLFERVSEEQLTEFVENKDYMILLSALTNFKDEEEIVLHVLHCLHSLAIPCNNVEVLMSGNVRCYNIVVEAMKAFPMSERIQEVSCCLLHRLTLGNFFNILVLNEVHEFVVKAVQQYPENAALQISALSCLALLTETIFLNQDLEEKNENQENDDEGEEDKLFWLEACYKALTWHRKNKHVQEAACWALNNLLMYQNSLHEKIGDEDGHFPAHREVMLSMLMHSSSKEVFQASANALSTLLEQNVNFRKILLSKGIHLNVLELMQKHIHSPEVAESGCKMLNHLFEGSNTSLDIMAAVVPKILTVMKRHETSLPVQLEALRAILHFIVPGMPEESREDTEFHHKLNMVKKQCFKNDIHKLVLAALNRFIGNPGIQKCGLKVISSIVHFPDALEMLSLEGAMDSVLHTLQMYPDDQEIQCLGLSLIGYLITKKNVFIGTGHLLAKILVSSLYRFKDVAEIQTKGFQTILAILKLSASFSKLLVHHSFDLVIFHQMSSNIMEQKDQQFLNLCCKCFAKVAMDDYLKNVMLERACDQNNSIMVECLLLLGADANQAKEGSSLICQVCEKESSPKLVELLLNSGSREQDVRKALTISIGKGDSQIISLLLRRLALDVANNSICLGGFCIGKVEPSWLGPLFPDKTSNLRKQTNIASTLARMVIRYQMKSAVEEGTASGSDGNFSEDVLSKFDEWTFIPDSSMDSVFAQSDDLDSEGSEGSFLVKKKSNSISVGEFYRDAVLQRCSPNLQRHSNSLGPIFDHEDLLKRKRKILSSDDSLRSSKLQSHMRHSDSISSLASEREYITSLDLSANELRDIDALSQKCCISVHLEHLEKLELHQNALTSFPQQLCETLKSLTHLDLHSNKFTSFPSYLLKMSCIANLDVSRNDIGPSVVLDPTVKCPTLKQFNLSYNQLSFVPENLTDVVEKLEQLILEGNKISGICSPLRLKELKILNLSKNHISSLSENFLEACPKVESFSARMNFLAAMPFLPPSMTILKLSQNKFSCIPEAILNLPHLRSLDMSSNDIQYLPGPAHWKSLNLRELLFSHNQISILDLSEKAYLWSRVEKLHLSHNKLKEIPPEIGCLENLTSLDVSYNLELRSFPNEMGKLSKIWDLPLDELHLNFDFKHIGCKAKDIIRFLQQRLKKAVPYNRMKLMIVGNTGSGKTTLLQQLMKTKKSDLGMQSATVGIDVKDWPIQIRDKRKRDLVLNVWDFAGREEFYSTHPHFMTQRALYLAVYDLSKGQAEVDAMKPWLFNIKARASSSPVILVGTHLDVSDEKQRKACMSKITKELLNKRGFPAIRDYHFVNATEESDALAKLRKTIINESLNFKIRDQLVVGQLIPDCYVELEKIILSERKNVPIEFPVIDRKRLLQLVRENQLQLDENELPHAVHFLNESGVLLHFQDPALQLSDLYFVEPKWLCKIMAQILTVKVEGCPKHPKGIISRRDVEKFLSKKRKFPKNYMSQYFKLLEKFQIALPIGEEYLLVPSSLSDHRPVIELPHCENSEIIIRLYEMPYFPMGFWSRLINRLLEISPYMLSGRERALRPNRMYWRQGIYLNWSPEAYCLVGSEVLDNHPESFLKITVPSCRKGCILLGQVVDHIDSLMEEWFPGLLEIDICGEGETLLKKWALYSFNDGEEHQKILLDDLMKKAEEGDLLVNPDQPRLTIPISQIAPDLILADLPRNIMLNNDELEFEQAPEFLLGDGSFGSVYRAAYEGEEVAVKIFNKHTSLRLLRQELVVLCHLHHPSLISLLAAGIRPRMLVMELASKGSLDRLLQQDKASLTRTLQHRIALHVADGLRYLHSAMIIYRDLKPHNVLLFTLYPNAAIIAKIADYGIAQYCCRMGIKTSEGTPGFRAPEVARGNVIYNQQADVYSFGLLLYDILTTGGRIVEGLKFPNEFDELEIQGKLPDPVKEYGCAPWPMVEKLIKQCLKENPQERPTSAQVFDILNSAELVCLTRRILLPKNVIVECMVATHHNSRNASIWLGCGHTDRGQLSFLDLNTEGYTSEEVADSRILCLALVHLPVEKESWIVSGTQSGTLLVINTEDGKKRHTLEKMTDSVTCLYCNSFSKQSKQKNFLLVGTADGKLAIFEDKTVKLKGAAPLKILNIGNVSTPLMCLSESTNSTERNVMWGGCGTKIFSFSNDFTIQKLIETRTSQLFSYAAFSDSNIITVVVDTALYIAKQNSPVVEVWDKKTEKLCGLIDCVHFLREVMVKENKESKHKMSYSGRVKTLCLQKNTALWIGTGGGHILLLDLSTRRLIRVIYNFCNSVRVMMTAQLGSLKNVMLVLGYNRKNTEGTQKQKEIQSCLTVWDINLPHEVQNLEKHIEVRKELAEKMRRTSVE

One assay concerns the target recombinant GST-LRRK2 (wild-type) (Homo sapiens (Human), UniProt Q5S007). Kind of assay: LRRK2 TR-FRET peptide assay (in vitro kinase activity), wild-type.
Details: not given
It is filed as biochemical. How it is done:
Compounds as described herein (compounds of Formula I, e.g., compounds of the above Examples) are tested for their in vitro kinase activities using various LRRK2 (including LRRK2 G2019S mutant) assays. […] Serially diluted compounds (1% DMSO as co-solvent) were pre-incubated with recombinant GST-LRRK2 (wild-type, or G2019S mutant, Invitrogen) for 15 minutes at room temperature in 384-well Corning black plates. […] The inhibition of each well was calculated using the control and background readings for that plate. IC50 values were determined from dose-response curves using eight concentrations from the serial dilution of the test compounds.
`C[C@@H](Nc1c(C(N)=O)nnc2cc(-c3ccncc3)ccc12)C1CC1` [Compound 2-100, (R)-4-(1-cyclopropylethylamino)-7-(pyridin-4-yl)cinnoline-3-carboxamide]: the IC50 is below 6 nM.

Staying with this assay, now noted: 100 μM ATP, 100 nM biotin-LRRKtide substrate, 10 nM kinase, 60 minutes at room temperature.
For the compound `COc1ccc(F)cc1-c1ccc2c(NC(C)C)c(C(N)=O)nnc2c1` [Compound 2-98, 7-(5-fluoro-2-methoxyphenyl)-4-(isopropylamino)cinnoline-3-carboxamide], the IC50 was 590 nM.
With `C[C@@H](Nc1c(C(N)=O)nnc2cc(-c3ccc(N4CCOC4=O)cc3)ccc12)C1CC1` [Compound 9-213, (R)-4-(1-cyclopropylethylamino)-7-(4-(2-oxooxazolidin-3-yl)phenyl)cinnoline-3-carboxamide], the IC50 came to 1 nM.
With `CC(C)Nc1c(C(N)=O)nnc2cc(Oc3ccccc3)ccc12` [Compound 4-74, 4-(isopropylamino)-7-phenoxycinnoline-3-carboxamide], the 50% inhibitory concentration (IC50) was 490 nM.
Same read-out and setting: under `COc1ccc(-n2cccn2)cc1-c1ccc2c(N[C@H](C)C3CC3)c(C(N)=O)nnc2c1` [Compound 9-207, (R)-4-(1-cyclopropylethylamino)-7-(2-methoxy-5-(1H-pyrazol-1-yl)phenyl)cinnoline-3-carboxamide] stands 280 nM; under `COc1ccc(N2CCOCC2=O)cc1-c1ccc2c(N[C@H](C)C3CC3)c(C(N)=O)nnc2c1` [Compound 9-209, (R)-4-(1-cyclopropylethylamino)-7-(2-methoxy-5-(3-oxomorpholino)phenyl)cinnoline-3-carboxamide], 63 nM.
`CC(C)Nc1c(C#N)nnc2ccc(-c3cn[nH]c3)cc12` [Compound 2-128, 4-(isopropylamino)-6-(1H-pyrazol-4-yl)cinnoline-3-carbonitrile]: the IC50 is 120 nM.
Take `COc1cc(-c2nccnc2OC)ccc1-c1ccc2c(N[C@H](C)C3CC3)c(C(N)=O)nnc2c1` [Compound 11-220, (R)-4-(1-cyclopropylethylamino)-7-(2-methoxy-4-(3-methoxypyrazin-2-yl)phenyl)cinnoline-3-carboxamide]: the IC50 amounted to 25 nM.
Consider `NC(=O)c1nnc2cc(-c3ccc(N4CCOCC4)cc3)ccc2c1N` [Compound 1-9, 4-amino-7-(4-morpholinophenyl)cinnoline-3-carboxamide], for which the concentration for half-maximal inhibition (IC50) was determined as 29700 nM.
Consider `CNC(=O)c1nnc2cc(-c3ccc(S(C)(=O)=O)cc3)ccc2c1NC(C)C` [Compound 12-227, 4-(Isopropylamino)-N-methyl-7-(4-(methylsulfonyl)phenyl)cinnoline-3-carboxamide], for which the IC50 was 410 nM.
The same measure, in the same setting: under `CCC(CC)Nc1c(C(N)=O)nnc2cc(-c3ccncc3)ccc12` [Compound 2-134, 4-(pentan-3-ylamino)-7-(pyridin-4-yl)cinnoline-3-carboxamide] stands 26 nM; under `CC(C)Nc1c(Cl)nnc2cc(-c3ccc(S(C)(=O)=O)cc3)ccc12` [Compound 3-84, 3-chloro-N-isopropyl-7-(4-(methylsulfonyl)phenyl) cinnolin-4-amine], 1600 nM; under `C[C@@H](Nc1c(C(N)=O)nnc2cc(-c3ccccc3)ccc12)C1CC1` [Compound 2-110, (R)-4-(1-cyclopropylethylamino)-7-phenylcinnoline-3-carboxamide], 10 nM.
With `C[C@@H](Nc1c(C(N)=O)nnc2cc(-c3cccc(S(C)(=O)=O)c3)ccc12)C1CC1` [Compound 2-111, (R)-4-(1-cyclopropylethylamino)-7-(3-(methylsulfonyl)phenyl)cinnoline-3-carboxamide], the IC50 was 1 nM.
Take `CC(C)Nc1c(C(N)=O)nnc2cc(-c3ccc(S(C)(=O)=O)cc3)ccc12` [Compound 2-17, 4-(isopropylamino)-7-(4-(methylsulfonyl)phenyl)cinnoline-3-carboxamide]: the IC50 stood at 15 nM.
`CCC(C)Sc1c(C(N)=O)nnc2cc(-c3ccc(S(C)(=O)=O)cc3)ccc12` (stereo not drawn) [Compound 2-243, 4-(sec-butylthio)-7-(4-(methylsulfonyl)phenyl)cinnoline-3-carboxamide]: the IC50 was determined as 12000 nM.
Still for that read-out and setting: under `CC(C)Nc1c(C(N)=O)nnc2cc(-c3cncnc3)ccc12` [Compound 2-33, 4-(isopropylamino)-7-(pyrimidin-5-yl)cinnoline-3-carboxamide] stands 210 nM.
With `CC(C)Nc1c(C(N)=O)nnc2ccc(-c3cnn(C)c3)cc12` [Compound 2-129, 4-(isopropylamino)-6-(1-methyl-1H-pyrazol-4-yl)cinnoline-3-carboxamide], the half-inhibitory concentration (IC50) came out at 380 nM.
With `C[C@@H](Nc1c(C(N)=O)nnc2cc(-c3cnn(C)c3)ccc12)C1CC1` [Compound 2-101, (R)-4-(1-cyclopropylethylamino)-7-(1-methyl-1H-pyrazol-4-yl)cinnoline-3-carboxamide], the half-maximal inhibitory concentration (IC50) came to 1 nM.
As for `CS(=O)(=O)c1ccc(-c2ccc3c(NC4COC4)c(C(N)=O)nnc3c2)cc1` [Compound 2-27, 7-(4-(methylsulfonyl)phenyl)-4-(oxetan-3-ylamino)cinnoline-3-carboxamide], the IC50 stood at 180 nM.
For the compound `CC(C)Nc1c(C(N)=O)nnc2ccc(-c3ccncc3)cc12` [Compound 2-126, 4-(isopropylamino)-6-(pyridin-4-yl)cinnoline-3-carboxamide], the IC50 was 30 nM.
As to `CS(=O)(=O)c1ccc(-c2ccc3c(NCC4CC4)c(C(N)=O)nnc3c2)cc1` [Compound 2-92], the IC50 came out at 17 nM.
In the case of `C[C@@H](Nc1c(C(N)=O)nnc2cc(-c3ccn(C)c(=O)c3)ccc12)C1CC1` [Compound 2-122, (R)-4-(1-cyclopropylethylamino)-7-(1-methyl-2-oxo-1,2-dihydropyridin-4-yl)cinnoline-3-carboxamide], the concentration for half-maximal inhibition (IC50) was 8 nM.
Regarding `C[C@@H](Nc1c(C(N)=O)nnc2cc(-c3ccc4c(c3)NC(=O)C4)ccc12)C1CC1` [Compound 2-120, (R)-4-(1-cyclopropylethylamino)-7-(2-oxoindolin-6-yl)cinnoline-3-carboxamide], the half-inhibitory concentration (IC50) was 1 nM.
On the same count and under the same terms, under `CC(C)Nc1c(C(N)=O)nnc2cc(-c3cn[nH]c3)ccc12` [Compound 2-53, 4-(isopropylamino)-7-(1H-pyrazol-4-yl)cinnoline-3-carboxamide] stands 9 nM; under `C[C@@H](Nc1c(C(N)=O)nnc2cc(-c3ccccc3OC(F)(F)F)ccc12)C1CC1` [Compound 2-108, (R)-4-(1-cyclopropylethylamino)-7-(2-(trifluoromethoxy)phenyl)cinnoline-3-carboxamide], 4300 nM.
In the case of `CN(C)c1cccc(-c2ccc3c(N)c(C(N)=O)nnc3c2)c1` [Compound 1-8, 4-amino-7-(3-(dimethylamino)phenyl)cinnoline-3-carboxamide], the concentration for half-maximal inhibition (IC50) came out at 250 nM.
For the compound `CN(C)c1ccc(-c2ccc3c(N)c(C(N)=O)nnc3c2)cc1` [Compound 1-7, 4-amino-7-(4-(dimethylamino)phenyl)cinnoline-3-carboxamide], the IC50 came to 130 nM.
As for `COc1cc(-c2nccn2C)ccc1-c1ccc2c(N[C@H](C)C3CC3)c(C(N)=O)nnc2c1` [Compound 11-221, (R)-4-(1-cyclopropylethylamino)-7-(2-methoxy-4-(1-methyl-1H-imidazol-2-yl)phenyl)cinnoline-3-carboxamide], the IC50 stood at 9 nM.
`CC(C)Nc1c(C(N)=O)nnc2ccc(N3CCOCC3)cc12` [Compound 4-191, 4-(isopropylamino)-6-morpholinocinnoline-3-carboxamide]: the IC50 came to 1300 nM.
Turning to `CS(=O)(=O)c1ccc(-c2ccc3c(NC4CC4)c(C(N)=O)nnc3c2)cc1` [Compound 2-29, 4-(cyclopropylamino)-7-(4-(methylsulfonyl)phenyl)cinnoline-3-carboxamide], the IC50 stood at 47 nM.
`C[C@@H](Nc1c(C(N)=O)nnc2cc(-c3cccc(OCC4CC4)c3)ccc12)C1CC1` [Compound 2-113, (R)-4-(1-cyclopropylethylamino)-7-(3-(cyclopropylmethoxy)phenyl)cinnoline-3-carboxamide]: the half-maximal inhibitory concentration (IC50) was 51 nM.
`NC(=O)c1nnc2cc(-c3ccncc3)ccc2c1NCCO` [Compound 2-137, 4-(2-hydroxyethylamino)-7-(pyridin-4-yl)cinnoline-3-carboxamide]: the IC50 was found to be 150 nM.
As to `CC(C)Nc1c(C(N)=O)nnc2cc(-c3ccccc3F)ccc12` [Compound 2-47, 7-(2-fluorophenyl)-4-(isopropylamino)cinnoline-3-carboxamide], the IC50 came to 210 nM.
`CC(C)Nc1c(-c2cscn2)nnc2cc(-c3ccc(S(C)(=O)=O)cc3)ccc12` [Compound 3-70, N-isopropyl-7-(4-(methylsulfonyl)phenyl)-3-(thiazol-4-yl)cinnolin-4-amine]: the IC50 is above 100000 nM.
On the same count and under the same terms, under `C#Cc1nnc2cc(-c3ccc(S(C)(=O)=O)cc3)ccc2c1NC(C)C` [Compound 10-87, 3-ethynyl-N-isopropyl-7-(4-(methylsulfonyl)phenyl)cinnolin-4-amine] stands 990 nM; under `C[C@@H](Nc1c(C(N)=O)nnc2cc(-c3ccccc3S(C)(=O)=O)ccc12)C1CC1` [Compound 2-123, (R)-4-(1-cyclopropylethylamino)-7-(2-(methylsulfonyl)phenyl)cinnoline-3-carboxamide], 430 nM; under `C[C@@H](Nc1c(C(N)=O)nnc2cc(-c3ccc(=O)n(C)c3)ccc12)C1CC1` [Compound 2-112, (R)-4-(1-cyclopropylethylamino)-7-(1-methyl-6-oxo-1,6-dihydropyridin-3-yl)cinnoline-3-carboxamide], below 6 nM.
`C=Cc1ccc2c(NC(C)C)c(C(N)=O)nnc2c1` [Compound 2-95, 4-(isopropylamino)-7-vinylcinnoline-3-carboxamide]: the half-maximal inhibitory concentration (IC50) was found to be 120 nM.
